Measured values as given in patent US20260015339A1, “CALIX[4]ARENES WITH HIGH ANTICANCER ACTIVITY” (UNIVERSITE GRENOBLE ALPES, priority 2023, published 2026).

Key:
[1] = system: A549 human lung cancer cells; assay: MTS cytotoxicity assay on A549; format: cell-based; settings: A549, 72 hours of treatment
Experimental: A549 human lung cancer cells were seeded in 96-well plates together with the calix[4]arene of the formula (2). Cells were grown in RPMI-1640 supplemented with GlutaMAX™ (Gibco™) and fetal calf serum (FCS, 10%) and treated with a broad range of concentrations of the calix[4]arene of the formula (2). After 72 hours of treatment, the cytotoxicity was measured by means of the IC50 value, using the kit “CellTiter 96R AQuous One Solution Cell Proliferation Assay (MTS)” from Promega™. Following 30 minutes of incubation with the MTS reagent, the endpoint measurements were done in triplicate at 485 nm, using a fluorescence plate reader.
A549 human lung cancer cells were seeded in 96-well plates together with the compound of the 2nd comparative example of the formula (XI). Cells were grown in RPMI-1640 supplemented with GlutaMAX™ (Gibco™) and fetal calf serum (FCS, 10%) and treated with a broad range of concentrations of the 2nd comparative example of the formula (XI). After 72 hours of treatment, the cytotoxicity was measured by means of the IC50 value, using the kit “CellTiter 96R AQuous One Solution Cell Proliferation Assay (MTS)” from Promega™. Following 30 minutes of incubation with the MTS reagent, the endpoint measurements were done in triplicate at 485 nm, using a fluorescence plate reader. […]

[2] = Cu^+ binding by 1H NMR titration; settings: 1H NMR titration with Cu(MeCN)4BF4, CD3CN/CDCl3 4/1, 298 K
Experimental: Binding abilities and complexation constants of the examples of calix[4]arenes of the present invention and the comparative examples with Cu^+ were evaluated by ^1H NMR titrations at 298 K using copper(I)tetrakis(acetronitrile)tetrafluoroborate.
For example, for each separate calix[4]arene a stock solution of the tested calix[4]arene was prepared in a CD3CN/CDCl3, 4/1 mixture. Using this stock solution, a Cu(MeCN)4BF4 solution was prepared and added by steps of 0.25 equivalent of copper(I) up until 1 equivalent and then by steps of 0.5 equivalent until a total of at least 2 equivalents. ^1H NMR spectra were recorded at a 400 MHz spectrometer at 298 K for the stock solutions of the calix[4]arenes and after each addition of Cu(MeCN)4BF4.
Calix[4]arenes for which a gradual change of the chemical shifts of the ^1H NMR signals (>0.1 ppm for at least one of the signals) was observed upon addition of up to 4-5 equivalents of Cu(MeCN)4BF4 were considered to show weak binding.

CCCOc1c2cccc1Cc1cccc(c1OCc1nccn1C)Cc1cccc(c1OCCC)Cc1cccc(c1OCc1nccn1C)C2 [(2)]
IC50 [1]: 1560 nM
Cu^+ binding [2]: Strong binding (means an affinity constant (Ka) equal or greater than 10^5 M^−1)
